According to paper PMC12040169 (PLOS Biology, 2025):

Test: in vitro
Settings: human, hela cells, % viability

Row | SMILES | viability at 28.5 h, 10 µM [%]
1 | CC1(C)CC(=O)c2sc(NC(=O)c3cncnc3)nc2C1 [CBK144107] | 101
2 | O=C(CC1CC1)NC(c1ccccc1)c1ccccn1 (stereo not shown) [CBK144108] | 103
3 | O=C(NC(c1ccccc1)c1ccccn1)c1ccco1 (stereo not shown) [CBK144109] | 106
4 | O=C(Cc1ccc(Cl)c(Cl)c1)NC(c1ccccc1)c1ccccn1 (stereo not shown) [CBK144110] | 92.8
5 | CC1CCN(Cc2ccc(-c3nnn(CC(=O)NCc4ccc(S(C)(=O)=O)cc4)n3)cc2)CC1 [CBK144152C] | 94.3
6 | CC1CCN(Cc2ccc(-c3nnn(CC(=O)NCc4ccc(O)cc4)n3)cc2)CC1 [CBK144156C] | 90.9
7 | CC1CCN(Cc2ccc(-c3nnn(CC(=O)NCc4ccc([N+](=O)[O-])cc4)n3)cc2)CC1 [CBK144176C] | 101
8 | O=C(O)CN1CCC(Oc2nccnc2OCc2ccc(Cl)c(Cl)c2)CC1 [CBK144443] | 97
9 | CS(=O)(=O)c1ccc(Cn2ccnc(N3CCC(Sc4ccccc4)CC3)c2=O)cc1 [CBK144444] | 84.2
10 | CN(C)CCCC(=O)N1CCN(C(=O)c2ccco2)CC1 [CBK144445] | 111
11 | O=C(Cc1ccsc1)N1CCN(C(=O)c2ccco2)CC1 [CBK144446] | 86
12 | Cc1cc(C(=O)N2CCN(C(=O)c3ccco3)CC2)n[nH]1 [CBK144447] | 98.9
13 | O=C(Cc1c[nH]cn1)N1CCN(C(=O)c2ccco2)CC1 [CBK144448] | 91.9
14 | CN1CCC[C@H]1C(=O)N1CCN(C(=O)c2ccco2)CC1 [CBK144449] | 94.5
15 | O=C(Cc1ccc(Cl)c(Cl)c1)N1CCN(C(=O)c2ccco2)CC1 [CBK144454] | 95.2
16 | O=C(/C=C/c1ccc2c(c1)OCO2)N1CCN(C(=O)c2ccco2)CC1 [CBK144459] | 95.1
17 | O=C(c1ccc2ncccc2c1)N1CCN(C(=O)c2ccco2)CC1 [CBK144461] | 94
18 | O=C1CC(C(=O)N2CCN(C(=O)c3ccco3)CC2)c2ccccc21 (stereo not shown) [CBK144464] | 105
19 | Cc1cc(CC(=O)N2CCN(C(=O)c3ccco3)CC2)on1 [CBK144465] | 96.3
20 | CSCCC(=O)N1CCN(C(=O)c2ccco2)CC1 [CBK144468] | 93.5
21 | Cc1cn(CC(=O)N2CCN(C(=O)c3ccco3)CC2)c(=O)[nH]c1=O [CBK144472] | 87.7
22 | CN1CCN(CCC(=O)N2CCN(C(=O)c3ccco3)CC2)CC1 [CBK144481] | 89.3

Row | SMILES | viability at 28.5 h, 10 µM [%]
23 | COc1cc(CN2CCNCC2)c2ccn(S(=O)(=O)c3ccccc3Cl)c2c1 [CBK144483T] | 91.9
24 | COc1cc(CN2CCNCC2)c2ccn(S(=O)(=O)c3ccccc3C#N)c2c1 [CBK144486T] | 89.4
25 | O=C(Cc1ccc(Cl)c(Cl)c1)N1CCN(c2ncccn2)CC1 [CBK144497] | 98
26 | O=C(c1ccc2[nH]ccc2c1)N1CCN(c2ncccn2)CC1 [CBK144500] | 87
27 | O=C(/C=C/c1ccc2c(c1)OCO2)N1CCN(c2ncccn2)CC1 [CBK144501] | 89.5
28 | O=C(C1COc2ccccc2O1)N1CCN(c2ncccn2)CC1 (stereo not shown) [CBK144502] | 116
29 | O=C1CC(C(=O)N2CCN(c3ncccn3)CC2)c2ccccc21 (stereo not shown) [CBK144505] | 99.2
30 | Cc1cc(CC(=O)N2CCN(c3ncccn3)CC2)on1 [CBK144507] | 90
31 | Cc1cn(CC(=O)N2CCN(c3ncccn3)CC2)c(=O)[nH]c1=O [CBK144513] | 105
32 | O=C(Cc1ccccc1)N1CCN(c2ncccn2)CC1 [CBK144518] | 116
33 | CN1CCN(CCC(=O)N2CCN(c3ncccn3)CC2)CC1 [CBK144520] | 84.5
34 | CN(C)CCCC(=O)N1CCN(c2ncccn2)CC1 [CBK144523] | 116
35 | O=C(c1ccco1)N1CCN(c2ncccn2)CC1 [CBK144524] | 111
36 | O=C(Cc1ccsc1)N1CCN(c2ncccn2)CC1 [CBK144525] | 105
37 | Cc1cc(C(=O)N2CCN(c3ncccn3)CC2)n[nH]1 [CBK144526] | 111
38 | Cc1ccc(CNC(=O)Cn2nnc(-c3ccc(CN4CCCC(C(F)(F)F)C4)cc3)n2)cc1 (stereo not shown) [CBK144562C] | 109
39 | CS(=O)(=O)N1CC2(CCN(CC(=O)c3ccsc3)CC2)c2ccccc21 [CBK144595T] | 87
40 | CCNC(=O)N1CC2(CCN(CCC(N)=O)CC2)c2ccccc21 [CBK144598T] | 99.6
41 | CCNC(=O)N1CC2(CCN(CC(=O)c3ccsc3)CC2)c2ccccc21 [CBK144601T] | 88.6
42 | O=C(CN1CCC2(CC1)CN(C(=O)CO)c1ccccc12)c1ccsc1 [CBK144605T] | 86.8
43 | OCCN1CC2(CCN(CCc3c[nH]c4ccccc34)CC2)c2ccccc21 [CBK144607T] | 94.2
44 | CCc1cc(NCCc2ccc(=O)[nH]c2)nc(-c2ccc(Br)cc2)n1 [CBK144610C] | 93.3

Row | SMILES | viability at 28.5 h, 10 µM [%]
45 | CS(=O)(=O)c1ccc(-c2ccc3c(c2)COC(C2CCN(C(=O)OCc4ccccc4)CC2)O3)cc1 (stereo not shown) [CBK144643] | 87.9
46 | O=C(OCc1ccccc1)N1CCC(C2OCc3ccc(-c4ccc(Cl)c(Cl)c4)cc3O2)CC1 (stereo not shown) [CBK144646] | 109
47 | CN(C)C(=O)c1ccc(-c2ccc3c(c2)OC(C2CCN(C(=O)OCc4ccccc4)CC2)OC3)cc1 (stereo not shown) [CBK144649] | 85.5
48 | O=C(Cc1c(F)cccc1F)Nc1ccc2[nH]ccc2c1 [CBK144712] | 120
49 | O=C(Nc1cccc(-c2nnn[nH]2)c1)c1ccc(Cl)c(Cl)c1 [CBK144713] | 89.3
50 | CN1CCN(C(=O)c2ccc(-c3cncc(-c4cc5ccccc5[nH]4)n3)c(F)c2)CC1 [CBK144906] | 92.8
51 | Cc1nc2ccccc2c(SCCC(=O)O)c1Cc1ccccc1 [CBK144942T] | 88.9
52 | NC1=NN(c2ccccc2)C(=O)C1 [CBK144946] | 97.3
53 | CN(C)CCN(Cc1ccccc1)C(=O)NCc1cccnc1 [CBK145048] | 89.6
54 | CCN(Cc1ccncc1)C(=O)NCCN1CCOCC1 [CBK145055] | 92.1
55 | COc1ccccc1-c1ncc(OCCN2CCOCC2)nc1N [CBK145072] | 113
56 | COc1ccc(-c2ncc(OCc3cccs3)nc2N)c(OC)c1 [CBK145088] | 84
57 | COc1ccc(-c2ncc(OCC3CCCN3C)nc2N)c(OC)c1 (stereo not shown) [CBK145091] | 88.9
58 | Nc1nc(OCCOc2ccccc2)cnc1-c1ccc2c(c1)OCO2 [CBK145097] | 83.4
59 | COCOc1ccc(-c2ncc(OCCN3CCOCC3)nc2N)cc1 [CBK145100] | 87.7
60 | COCc1cccc(-c2ncc(OCCN3CCCC3=O)nc2N)c1 [CBK145110] | 93.6
61 | COCc1cccc(-c2ncc(OCC3COc4ccccc4O3)nc2N)c1 (stereo not shown) [CBK145113] | 93.1
62 | CC(=O)Nc1cccc(Oc2cnc(-c3ccc(OC(F)(F)F)cc3)c(N)n2)c1 [CBK145119] | 91.9
63 | Nc1nc(OCc2ccc3c(c2)OCO3)cnc1/C=C/c1ccccc1 [CBK145123] | 92.7
64 | Cc1ccc(-c2ncc(OCc3ccccc3)nc2N)c(C)c1 [CBK145129] | 90.6
